Assay results taken from US8263606B2 (Xenon Pharmaceuticals Inc., priority 2008, dated 2012).
Structures can show the parent of a compound that is named as a salt.

Legend:
[1] = test system: sodium channel; test: Guanidine influx assay (14C-guanidine radiotracer flux, in vitro); type: cell-based, human or rat; settings: guanidine influx assay using a known cell line that expresses a sodium channel
Source text: This example describes an in vitro assay for testing and profiling test agents against human or rat sodium channels stably expressed in cells of either an endogenous or recombinant origin. The assay is also useful for determining the IC50 of a sodium channel blocking compound. The assay is based on the guanidine flux assay described by Reddy, N. L., et al., J. Med. Chem. (1998), 41(17):3298-302.
The guanidine influx assay is a radiotracer flux assay used to determine ion flux activity of sodium channels in a high-throughput microplate-based format. The assay uses ^14C-guanidine hydrochloride in combination with various known sodium channel modulators, to assay the potency of test agents. Potency is determined by an IC50 calculation. Selectivity is determined by comparing potency of the compound for the channel of interest to its potency against other sodium channels (also called ‘selectivity profiling’).
Each of the test agents is assayed against cells that express the channels of interest. Voltage gated sodium channels are either TTX sensitive or insensitive. This property is useful when evaluating the activities of a channel of interest when it resides in a mixed population with other sodium channels. The following Table 1 summarizes cell lines useful in screening for a certain channel activity in the presence or absence of TTX.
It is also possible to employ recombinant cells expressing these sodium channels. Cloning and propagation of recombinant cells are known to those skilled in the art (see, for example, Klugbauer, N, et al., EMBO J. (1995), 14(6):1084-90; and Lossin, C., et al., Neuron (2002), 34, pp. 877-884).
Cells expressing the channel of interest are grown according to the supplier or in the case of a recombinant cell in the presence of selective growth media such as G418 (Gibco/Invitrogen). The cells are disassociated from the culture dishes with an enzymatic solution (Ix) Trypsin/EDTA (Gibco/Invitrogen) and analyzed for density and viability using haemocytometer (Neubauer). Disassociated cells are washed and resuspended in their culture media then plated into Scintiplates (Beckman Coulter Inc.) (approximately 100,000 cells/well) and incubated at 37° C./5% CO2 for 20-24 hours. After an extensive wash with Low sodium HEPES-buffered saline solution (LNHBSS) (150 mM Choline Chloride, […] (Sigma), 1 mM Calcium Chloride, 5 mM Potassium Chloride, 1 mM Magnesium Chloride, 10 mM Glucose) agents diluted with LNHBSS are added to each well. (Varying concentrations of test agent may be used). The activation/radiolabel mixture contains aconitine (Sigma) to increase the percentage of time that the sodium channels are open, and ^14C-guanidine hydrochloride (ARC) to measure flux through the voltage-gated sodium channels.
After loading the cells with test agent and activation/radiolabel mixture, the Scintiplates are incubated at ambient temperature. Following the incubation, the Scintplates are extensively washed with LNHBSS supplemented with guanidine (Sigma). The Scintiplates are dried and then counted using a Wallac MicroBeta TriLux (Perkin-Elmer Life Sciences). The ability of the test agent to block sodium channel activity is determined by comparing the amount of ^14C-guanidine present inside the cells expressing the different sodium channels.
The IC50 value of a test agent for a specific sodium channel may be determined using the above general method. […] Typically the mid-point concentration of test agent is set at 1 μM, and sequential concentrations of half dilutions greater or smaller are applied (e.g. 0.5 μM; 5 μM and 0.25 μM; 10 μM and 0.125 μM; 20 μM etc.). The IC50 curve is calculated using the 4 Parameter Logistic Model or Sigmoidal Dose-Response Model formula (fit=(A+((B−A)/(1+((C/x)^D)))).
The fold selectivity, factor of selectivity or multiple of selectivity, is calculated by dividing the IC50 value of the test sodium channel by the reference sodium channel, for example, Nav1.5. […]

[2] = biological target: CYP3A4 (Homo sapiens, UniProt P08684); test: Cytochrome P450 (CYP450) Inhibition Assay, CYP3A4 (Vivid fluorescence, BOMCC substrate); settings: human, P450 Baculosomes (recombinant CYP3A4), probe BOMCC (Vivid substrate)
CYP3A4, sequence (P08684 whole entry): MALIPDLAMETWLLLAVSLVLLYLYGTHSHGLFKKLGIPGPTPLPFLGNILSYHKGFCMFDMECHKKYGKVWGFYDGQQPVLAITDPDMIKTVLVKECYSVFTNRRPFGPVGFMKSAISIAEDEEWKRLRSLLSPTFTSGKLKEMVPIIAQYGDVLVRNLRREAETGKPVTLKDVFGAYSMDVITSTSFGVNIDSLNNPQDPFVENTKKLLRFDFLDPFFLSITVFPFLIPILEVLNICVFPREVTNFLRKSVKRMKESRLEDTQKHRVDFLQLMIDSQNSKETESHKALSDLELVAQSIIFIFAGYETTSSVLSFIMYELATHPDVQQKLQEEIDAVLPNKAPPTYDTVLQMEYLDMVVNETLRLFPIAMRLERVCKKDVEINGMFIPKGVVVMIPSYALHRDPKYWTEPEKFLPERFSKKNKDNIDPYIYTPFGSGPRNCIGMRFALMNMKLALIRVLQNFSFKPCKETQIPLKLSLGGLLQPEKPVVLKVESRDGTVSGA

SMILES: O=C1N(C[C@H]2CCCO2)c2cccc(/C=C/c3ccc(F)cc3)c2C12COc1cc3c(cc12)CCO3 (stereo partly drawn) [Example 16.1, 4′-[(E)-2-(4-fluorophenyl)ethenyl]-1′-[(2R)-tetrahydrofuran-2-ylmethyl]-5,6-dihydrospiro[benzo[1,2-b:5,4-b′]difuran-3,3′-indol]-2′(1′H)-one]
- IC50 [1]: 0.1 to 1 µM
- inhibition at 10 µM [2]: > 50%

SMILES: O=C1N(Cc2ccc(Br)o2)c2ccccc2C12COc1cc3c(cc12)CCO3 (stereo not drawn) [Example 4.18, 1′-[(5-bromofuran-2-yl)methyl]-5,6-dihydrospiro[benzo[1,2-b:5,4-b′]difuran-3,3′-indol]-2′(1′H)-one]
- IC50 ([1]; activity level class): 0.001 to 0.1 µM
- inhibition at 10 µM [2]: > 50%

SMILES: O=C1N(Cc2cc(Br)no2)c2ccccc2C12COc1cc3c(cc12)CCO3 (stereo not drawn) [Example 4.17, 1-[(3-bromoisoxazol-5-yl)methyl]-5,6-dihydrospiro[benzo[1,2-b:5,4-b′]difuran-3,3′-indol]-2′(1′H)-one]
- IC50 ([1]; activity level class): 0.001 to 0.1 µM
- inhibition at 10 µM [2]: > 50%

SMILES: O=C1N(Cc2ccc(-c3ccccc3)cc2)c2ccccc2C12COc1cc3c(cc12)CCO3 (stereo not drawn) [Example 4.15, 1′-(biphenyl-4-ylmethyl)-5,6-dihydrospiro[benzo[1,2-b:5,4-b′]difuran-3,3′-indol]-2′(1′H)-one]
- IC50 ([1]; activity level class): 0.001 to 0.1 µM
- inhibition at 10 µM [2]: < 50%

SMILES: O=C1N(Cc2ccc(C(F)(F)F)nc2)c2ccccc2C12COc1cc3c(cc12)OCCO3 (stereo not drawn) [Example 4.98, 1-{[6-(trifluoromethyl)pyridin-3-yl]methyl}-2,3-dihydrospiro[furo[2,3-g][1,4]benzodioxine-8,3′-indol]-2′(1′H)-one]
- IC50 ([1]; activity level class): 0.001 to 0.1 µM
- inhibition at 10 µM [2]: > 50%

SMILES: COc1ccc(CN2C(=O)C3(COc4cc5c(cc43)OCCO5)c3c2ccc2ncsc32)cc1 (stereo not drawn) [Example 2.66, 6′-(4-methoxybenzyl)-2,3-dihydrospiro[furo[2,3-g][1,4]benzodioxine-8,8′-[1,3]thiazolo[5,4-e]indol]-7′(6′H)-one]
- IC50 ([1]; activity level class): 0.1 to 1 µM
- inhibition at 10 µM [2]: > 50%

SMILES: O=C1N(Cc2ccc(F)cc2)c2ccccc2C12COc1cc3c(cc12)OCCO3 (stereo not drawn) [Example 7.21, 1′-(4-fluorobenzyl)-2,3-dihydrospiro[furo[2,3-g][1,4]benzodioxine-8,3′-indol]-2′(1′H)-one]
- IC50 ([1]; activity level class): 0.001 to 0.1 µM
- inhibition at 10 µM [2]: > 50%

SMILES: CN(C)S(=O)(=O)c1cccc(CN2C(=O)C3(COc4cc5c(cc43)OCCO5)c3ccccc32)c1 (stereo not drawn) [Example 7.16, N,N-dimethyl-3-[(2′-oxo-2,3-dihydrospiro[furo[2,3-g][1,4]benzodioxine-8,3′-indol]-1′-(2′H)-yl)methyl]benzenesulfonamide]
- IC50 ([1]; activity level class): 1 to 10 µM
- inhibition at 10 µM [2]: > 50%

SMILES: O=C1N(Cc2ccc(-c3ccncc3)o2)c2ccccc2C12COc1cc3c(cc12)CCO3 (stereo not drawn) [Example 11.15, 1′-[(5-pyridin-4-ylfuran-2-yl)methyl]-5,6-dihydrospiro[benzo[1,2-b:5,4-b′]difuran-3,3′-indol]-2′(1′H)-one]
- IC50 [1]: 0.1 to 1 µM
- inhibition at 10 µM [2]: > 50%

SMILES: CC(C)N1CCC(CN2C(=O)C3(COc4cc5c(cc43)CCO5)c3ccccc32)CC1 (stereo not drawn) [Example 11.6, 1′-{[1-(1-methylethyl)piperidin-4-yl]methyl}-5,6-dihydrospiro[benzo[1,2-b:5,4-b′]difuran-3,3′-indol]-2′(1′H)-one]
- IC50 [1]: 1 to 10 µM
- inhibition at 10 µM [2]: > 50%

SMILES: COC(=O)c1coc(CN2C(=O)C3(COc4cc5c(cc43)CCO5)c3ccccc32)n1 (stereo not drawn) [Example 4.11, methyl 2-[(2′-oxo-5,6-dihydrospiro[benzo[1,2-b:5,4-b′]difuran-3,3′-indol]-1′(2′H)-yl)methyl]-1,3-oxazole-4-carboxylate]
- IC50 ([1]; activity level class): 0.001 to 0.1 µM
- inhibition at 10 µM [2]: < 50%

SMILES: O=C1N(Cc2cc(C(F)(F)F)ccc2F)c2ccccc2C12COc1cc3c(cc12)OCCO3 (stereo not drawn) [Example 7.26, 1′-[(2-fluoro-5-trifluoromethyl)benzyl]-2,3-dihydrospiro[furo[2,3-g][1,4]benzodioxine-8,3′-indol]-2′(1′H)-one]
- IC50 ([1]; activity level class): 0.001 to 0.1 µM
- inhibition at 10 µM [2]: < 50%

SMILES: O=C1N(Cc2ccccn2)c2ccccc2C12COc1cc3c(cc12)S(=O)(=O)C=C3 (stereo not drawn) [Example 5.31, 1-(pyridin-2-ylmethyl)spiro[indole-3,3′-thieno[2,3-f][1]benzofuran]-2(1′H)-one 5,5′-dioxide]
- IC50 ([1]; activity level class): 1 to 10 µM
- inhibition at 10 µM [2]: < 50%

SMILES: O=C1N(Cc2ccc(F)cc2)c2ccccc2C12COc1cc3c(cc12)CCO3 (stereo not drawn) [Example 4.13, 1′-(4-fluorobenzyl)-5,6-dihydrospiro[benzo[1,2-b:5,4-b′]difuran-3,3′-indol]-2′(1′H)-one]
- IC50 ([1]; activity level class): 0.001 to 0.1 µM
- inhibition at 10 µM [2]: > 50%

SMILES: Cc1noc2cc3c(cc12)C1(CO3)C(=O)N(Cc2ccc(-c3cc(N)n[nH]3)cc2)c2ccccc21 (stereo not drawn) [Example 29.1, 1′-[4-(3-amino-1H-pyrazol-5-yl)benzyl]-3-methylspiro[furo[3,2-f][1,2]benzisoxazole-5,3′-indol]-2′(1′H)-one hydrochloride]
- IC50 [1]: 0.1 to 1 µM
- inhibition at 10 µM [2]: > 50%

SMILES: O=C1N(Cc2cncs2)c2ccccc2C12COc1cc3c(cc12)OCCO3 (stereo not drawn) [Example 7.11]
- IC50 ([1]; activity level class): 0.001 to 0.1 µM
- inhibition at 10 µM [2]: > 50%

SMILES: O=C1N(C[C@@H]2CCCO2)c2ccccc2[C@@]12COc1cc3c(cc12)CCO3 [Example 11.68, (3R)-1-[(2S)-tetrahydrofuran-2-ylmethyl]-5,6-dihydrospiro[benzo[1,2-b:5,4-b′]difuran-3,3′-indol]-2′(1′H)-one]
- IC50 [1]: 0.001 to 0.1 µM
- inhibition at 10 µM [2]: > 50%

SMILES: O=C(Nc1ccccc1)c1ccc(CN2C(=O)C3(COc4cc5c(cc43)CCO5)c3ccccc32)cc1 (stereo not drawn) [Example 12.27, 4-[(2′-oxo-5,6-dihydrospiro[benzo[1,2-b:5,4-b′]difuran-3,3′-indol]-1′(2′H)-yl)methyl]-N-phenylbenzamide]
- IC50 [1]: 0.1 to 1 µM
- inhibition at 10 µM [2]: < 50%

SMILES: O=C1N(Cc2cccc(F)c2F)c2ccccc2C12COc1cc3c(cc12)OCCO3 (stereo not drawn) [Example 7.19, 1-(2,3-difluorobenzyl)-2,3-dihydrospiro[furo[2,3-g][1,4]benzodioxine-8,3′-indol]-2′(1′H)-one]
- IC50 ([1]; activity level class): 0.001 to 0.1 µM
- inhibition at 10 µM [2]: > 50%

SMILES: COc1cc2c(cc1F)C1(CO2)C(=O)N(CC2CCOCC2)c2ccccc21 (stereo not drawn) [Example 9.29, 5-fluoro-6-methoxy-1-(tetrahydro-2H-pyran-4-ylmethyl)spiro[1-benzofuran-3,3′-indol]-2′(1′H)-one]
- IC50 ([1]; activity level class): 1 to 10 µM
- inhibition at 10 µM [2]: < 50%

SMILES: O=C1N(Cc2ncccc2C(F)(F)F)c2ccccc2C12COc1cc3c(cc12)OCCC3 (stereo not drawn) [Example 5.29, 1-{[3-(trifluoromethyl)pyridin-2-yl]methyl}-7,8-dihydro-6H-spiro[furo[2,3-g]chromene-3,3′-indol]-2′(1′H)-one]
- IC50 ([1]; activity level class): 0.1 to 1 µM
- inhibition at 10 µM [2]: < 50%

SMILES: O=C(O)c1ccc(CN2C(=O)C3(COc4cc5c(cc43)CCO5)c3ccccc32)o1 (stereo not drawn) [Example 13, 5-[(2′-oxo-5,6-dihydrospiro[benzo[1,2-b:5,4-b′]difuran-3,3′-indol]-1′(2′H)-yl)methyl]furan-2-carboxylic acid]
- IC50 [1]: 1 to 10 µM
- inhibition at 10 µM [2]: < 50%

SMILES: CCC(=O)CN1C(=O)[C@@]2(COc3cc4c(cc32)OCCO4)c2ccccc21 [Example 4.109, (S)-1′-(2-oxobutyl)-3,7-dihydro-2H-spiro[benzofuro[5,6-b][1,4]dioxine-8,3′-indolin]-2′-one]
- IC50 ([1]; activity level class): 0.001 to 0.1 µM
- inhibition at 10 µM [2]: < 50%

SMILES: O=C1N(Cc2ncccc2C(F)(F)F)c2ccccc2C12COc1cc3c(cc12)OCCO3 (stereo not drawn) [Example 7.13]
- IC50 ([1]; activity level class): 0.001 to 0.1 µM
- inhibition at 10 µM [2]: > 50%
